The results in this text go back to PubChem BioAssay (NCI).

What all share (assay): NCI tumour cell line growth inhibition, 48 h
Assay [1] relates to HOP-18 NSCLC.
The test system of assay [2] is DLD-1 colon.
In assay [3] the test system is XF 498 CNS.
In assay [4] the test system is M19-MEL melanoma.
Assay [5] concerns DMS 273 small cell lung.
Assay [6] deals with DMS 114 small cell lung.
The subject of assay [7] is SNB-78 CNS.
The test system of assay [8] is RXF-631 renal.
Assay [9] concerns P388 leukemia.
The test system of assay [10] is P388/ADR leukemia.
For assay [11], the system named is SN12K1 renal.

Each structure is given as a SMILES string. Several values for one entry are separate records, joined by “and”; a condition that tells them apart may be missing. Identical values can stand only once.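 Where inhibition never reached the appropriate level, the endpoint shown equals the highest concentration tested. Otherwise, values were interpolated linearly from a five-concentration, 48-hour dose response in 96-well plates. GI50: concentration for 50% inhibition of growth. Definition used: TGI = concentration required for complete inhibition of growth.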

`CN(C)CC(C)(C)C(=O)/C=C/c1ccccc1`: the TGI in [1] was determined as 49.8 µM; in assay [2], 74.3 µM; in [3] it was 23.8 µM; in assay [4] it was 32.2 µM; in assay [5] it was 47.7 µM; in [6], 29.1 µM. The compound further had a TGI in [7] of 88.6 µM.
`Cc1cc(N)c2cc(NC(=O)CCCCCCCCC(=O)Nc3ccc4nc(C)cc(N)c4c3)ccc2n1`: the TGI in assay [1] was above 100 µM; in assay [2], above 100 µM; in [3], above 100 µM; in [4], above 100 µM; in assay [5] it was above 45.3 µM; in assay [7], above 100 µM.
For `C[S+](C)C1(c2ccccc2)C(=O)c2ccccc2C1=O`, the TGI in assay [1] was above 100 µM; in assay [2], above 100 µM; in [3] it was 94 µM; in assay [4], above 100 µM; in [5], above 100 µM; in assay [6] it was above 100 µM. Further, the TGI in [7] is above 100 µM.
Turning to `COc1cccc2c1C(=O)c1c(O)c3c(c(O)c1C2=O)C[C@@](O)(C(=O)CO)CC3OC1CC(NCCCCC(OC(C)=O)OC(C)=O)C(O)C(C)O1` (stereo not given in full), the GI50 in assay [1] is 0.0078 µM; in assay [2], 0.00247 µM; in assay [4], 0.00156 µM; in assay [6], 0.00083 µM. Also, the TGI was 0.00926 µM and 0.0807 µM in [1]; 0.245 µM in assay [2]; 0.00334 µM in [4]; 0.00803 µM in [8]; 0.00291 µM in [6]; 0.00804 µM in assay [7].
In the case of `CN(C)CCSc1nccc(-c2ccc(-c3ccnc(SCCN(C)C)n3)s2)n1`, the TGI in assay [1] worked out at 67.2 µM; in [2] it was 23 µM; in assay [3], 29.4 µM; in [9], 3.18 µM; in [10], 6.74 µM; in assay [11] it was 24.6 µM. Besides, the TGI in assay [4] is 26.6 µM; in assay [5], 22.8 µM; in [6] it was 25.5 µM; in assay [7], 31 µM.
Take `O=c1cc(-c2ccccc2)[nH]c2c(F)ccc(F)c12`: the TGI in assay [1], in assay [2], in assay [4], in assay [5] and in [6] was above 100 µM in each case.
As for `CCC(C)Cn1c(C)nc2c1C(=O)c1ccccc1C2=O` (stereo not given), the TGI in assay [2] was above 100 µM; in [3], 56 µM; in assay [4] it was 33.9 µM; in assay [5], 64 µM; in assay [7], above 100 µM.
